Values quoted from earlier work as cited in patent US8618022B2, “Process for preparing an aqueous suspension of an organic pesticide compound” (priority 2009, dated 2013).
≈ marks a conversion by molar mass, not a printed value.

Conditions: for water solubility: deionised water at 20° C.

| SMILES | water solubility | solubility in water (at 20° C.) |
| --- | --- | --- |
| Cc1c(COC(=O)[C@@H]2[C@H](/C=C(\Cl)C(F)(F)F)C2(C)C)cccc1-c1ccccc1 (racemic) [bifenthrin] | 0.1 mg/L (≈ 0.236 µM) | – |
| ClC1=C(Cl)C2(Cl)C3C4C=CC(C4)C3C1(Cl)C2(Cl)Cl (stereo not shown) [aldrin] | <<1 mg/l | – |
| CCCCN(CC)c1c([N+](=O)[O-])cc(C(F)(F)F)cc1[N+](=O)[O-] [benfluralin] | <1 mg/L | – |
| COP(=S)(OC)Oc1cc(Cl)c(Br)cc1Cl [bromophos] | 40 mg/L (≈ 109 µM) | – |
| CC(C)OC(=O)C(O)(c1ccc(Br)cc1)c1ccc(Br)cc1 [bromopropylate] | <5 mg/L | – |
| CCOP(=S)(OCC)ON=C(C#N)c1ccccc1Cl [chlorphoxim] | 2 mg/L (≈ 6.01 µM) | – |
| CCOP(=S)(OCC)Oc1nc(Cl)c(Cl)cc1Cl [chlorpyriphos] | 2 mg/L (≈ 5.7 µM) | – |
| CC1(C)CCC(Cc2ccc(Cl)cc2)C1(O)Cn1cncn1 (stereo not shown) [metconazol] | 1400 mg/L (≈ 4380 µM) | – |
| CC(C)OC(=O)c1cc(C(=O)OC(C)C)cc([N+](=O)[O-])c1 [nitrothal-isopropyl] | 0.4 mg/L (≈ 1.35 µM) | – |
| COP(=S)(OC)SCN1C(=O)c2ccccc2C1=O [phosmet] | 25 mg/L (≈ 78.8 µM) | – |
| O=C(Nc1ccc(F)cc1)c1cccc(Oc2cccc(C(F)(F)F)c2)n1 [picolinafen] | <0.1 mg/L | – |
| CO/C=C(/C(=O)OC)c1ccccc1COc1cccc(C(F)(F)F)n1 [picoxystrobin] | 3.1 mg/L (≈ 8.44 µM) | – |
| COC(=O)N(OC)c1ccccc1COc1ccn(-c2ccc(Cl)cc2)n1 [pyraclostrobin, methyl {2-[1-(4-chlorophenyl)pyrazol-3-yloxymethyl]phenyl}-(methoxy)carbamate] | – | < 2 µg/mL |
